From PMC5787485, “HDAC inhibitor PAC-320 induces G2/M cell cycle arrest and apoptosis in human prostate cancer” (Oncotarget, 2017)

Experiments:
Assay in all cases: fluorescent HDAC activity assay (BIOMOL kit) with purified HDAC
Type in all cases: biochemical
HDAC 3 = target: T1, HDAC 3 (Homo sapiens, UniProt O15379)
T1 construct: gene HDAC3

HDAC4 = HDAC4 (Homo sapiens, UniProt P56524)
HDAC2 = HDAC2 (Homo sapiens, UniProt Q92769)
HDAC6 = target: T2, HDAC6 (Homo sapiens, UniProt Q9UBN7)
T2 sequence (Q9UBN7 1-1215): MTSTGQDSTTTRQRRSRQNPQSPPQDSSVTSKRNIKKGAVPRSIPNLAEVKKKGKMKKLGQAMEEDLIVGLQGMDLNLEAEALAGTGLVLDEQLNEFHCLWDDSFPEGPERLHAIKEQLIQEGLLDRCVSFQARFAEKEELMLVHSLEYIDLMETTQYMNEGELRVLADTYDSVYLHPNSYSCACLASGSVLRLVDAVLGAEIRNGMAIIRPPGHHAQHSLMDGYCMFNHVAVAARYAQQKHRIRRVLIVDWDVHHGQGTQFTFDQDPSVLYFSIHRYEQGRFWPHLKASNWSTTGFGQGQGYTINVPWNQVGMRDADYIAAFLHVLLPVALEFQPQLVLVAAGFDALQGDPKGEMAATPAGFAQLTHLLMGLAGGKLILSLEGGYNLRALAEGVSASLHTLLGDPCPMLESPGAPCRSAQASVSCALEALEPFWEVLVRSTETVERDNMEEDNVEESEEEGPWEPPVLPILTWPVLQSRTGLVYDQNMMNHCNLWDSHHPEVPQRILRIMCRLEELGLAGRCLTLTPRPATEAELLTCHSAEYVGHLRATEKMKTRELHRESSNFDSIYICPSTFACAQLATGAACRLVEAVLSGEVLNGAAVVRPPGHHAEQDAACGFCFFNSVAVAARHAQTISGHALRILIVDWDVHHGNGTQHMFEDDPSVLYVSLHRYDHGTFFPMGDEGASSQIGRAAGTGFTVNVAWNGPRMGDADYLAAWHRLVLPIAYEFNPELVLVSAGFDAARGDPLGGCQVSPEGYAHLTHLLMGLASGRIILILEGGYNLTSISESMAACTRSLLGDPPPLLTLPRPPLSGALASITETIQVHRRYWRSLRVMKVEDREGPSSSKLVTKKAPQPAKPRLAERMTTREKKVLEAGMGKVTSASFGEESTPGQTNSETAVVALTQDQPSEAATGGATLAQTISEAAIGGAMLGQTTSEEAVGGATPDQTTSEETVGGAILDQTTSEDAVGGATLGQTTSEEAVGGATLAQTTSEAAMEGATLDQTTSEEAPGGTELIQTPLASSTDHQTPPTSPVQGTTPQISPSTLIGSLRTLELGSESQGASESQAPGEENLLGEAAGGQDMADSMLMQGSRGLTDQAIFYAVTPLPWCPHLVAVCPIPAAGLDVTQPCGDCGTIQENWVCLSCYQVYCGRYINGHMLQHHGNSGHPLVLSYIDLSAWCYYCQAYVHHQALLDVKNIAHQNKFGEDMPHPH

HDAC1 = HDAC1 (Homo sapiens, UniProt Q13547)
HDAC5 = HDAC5 (Homo sapiens, UniProt Q9UQL6)

Measured: IC50

Chain of HDAC2 (Q92769 whole entry): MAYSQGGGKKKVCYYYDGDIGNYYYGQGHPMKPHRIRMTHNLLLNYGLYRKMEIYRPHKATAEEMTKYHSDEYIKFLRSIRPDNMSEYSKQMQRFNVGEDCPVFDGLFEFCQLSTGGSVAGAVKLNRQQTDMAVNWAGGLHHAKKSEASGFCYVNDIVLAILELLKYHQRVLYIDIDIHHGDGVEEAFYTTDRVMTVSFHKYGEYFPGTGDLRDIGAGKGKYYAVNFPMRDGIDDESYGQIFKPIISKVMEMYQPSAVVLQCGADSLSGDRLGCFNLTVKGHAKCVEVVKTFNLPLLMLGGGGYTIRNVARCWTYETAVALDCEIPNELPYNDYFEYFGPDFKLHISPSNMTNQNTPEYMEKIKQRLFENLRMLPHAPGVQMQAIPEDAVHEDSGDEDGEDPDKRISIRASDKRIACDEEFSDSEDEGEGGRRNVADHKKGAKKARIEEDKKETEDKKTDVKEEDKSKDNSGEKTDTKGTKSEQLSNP
T1 sequence (O15379 whole entry): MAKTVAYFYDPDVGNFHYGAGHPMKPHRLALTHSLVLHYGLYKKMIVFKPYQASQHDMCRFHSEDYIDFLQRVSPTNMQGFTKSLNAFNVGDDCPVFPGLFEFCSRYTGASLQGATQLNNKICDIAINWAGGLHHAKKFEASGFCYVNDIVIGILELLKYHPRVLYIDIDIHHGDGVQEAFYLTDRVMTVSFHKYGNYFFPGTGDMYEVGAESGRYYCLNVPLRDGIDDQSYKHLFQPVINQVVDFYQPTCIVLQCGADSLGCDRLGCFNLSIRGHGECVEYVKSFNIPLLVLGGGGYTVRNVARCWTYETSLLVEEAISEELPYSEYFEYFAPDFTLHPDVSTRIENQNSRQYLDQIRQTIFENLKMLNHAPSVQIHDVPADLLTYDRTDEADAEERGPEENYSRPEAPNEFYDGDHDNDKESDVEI
Chain of HDAC5 (Q9UQL6 whole entry): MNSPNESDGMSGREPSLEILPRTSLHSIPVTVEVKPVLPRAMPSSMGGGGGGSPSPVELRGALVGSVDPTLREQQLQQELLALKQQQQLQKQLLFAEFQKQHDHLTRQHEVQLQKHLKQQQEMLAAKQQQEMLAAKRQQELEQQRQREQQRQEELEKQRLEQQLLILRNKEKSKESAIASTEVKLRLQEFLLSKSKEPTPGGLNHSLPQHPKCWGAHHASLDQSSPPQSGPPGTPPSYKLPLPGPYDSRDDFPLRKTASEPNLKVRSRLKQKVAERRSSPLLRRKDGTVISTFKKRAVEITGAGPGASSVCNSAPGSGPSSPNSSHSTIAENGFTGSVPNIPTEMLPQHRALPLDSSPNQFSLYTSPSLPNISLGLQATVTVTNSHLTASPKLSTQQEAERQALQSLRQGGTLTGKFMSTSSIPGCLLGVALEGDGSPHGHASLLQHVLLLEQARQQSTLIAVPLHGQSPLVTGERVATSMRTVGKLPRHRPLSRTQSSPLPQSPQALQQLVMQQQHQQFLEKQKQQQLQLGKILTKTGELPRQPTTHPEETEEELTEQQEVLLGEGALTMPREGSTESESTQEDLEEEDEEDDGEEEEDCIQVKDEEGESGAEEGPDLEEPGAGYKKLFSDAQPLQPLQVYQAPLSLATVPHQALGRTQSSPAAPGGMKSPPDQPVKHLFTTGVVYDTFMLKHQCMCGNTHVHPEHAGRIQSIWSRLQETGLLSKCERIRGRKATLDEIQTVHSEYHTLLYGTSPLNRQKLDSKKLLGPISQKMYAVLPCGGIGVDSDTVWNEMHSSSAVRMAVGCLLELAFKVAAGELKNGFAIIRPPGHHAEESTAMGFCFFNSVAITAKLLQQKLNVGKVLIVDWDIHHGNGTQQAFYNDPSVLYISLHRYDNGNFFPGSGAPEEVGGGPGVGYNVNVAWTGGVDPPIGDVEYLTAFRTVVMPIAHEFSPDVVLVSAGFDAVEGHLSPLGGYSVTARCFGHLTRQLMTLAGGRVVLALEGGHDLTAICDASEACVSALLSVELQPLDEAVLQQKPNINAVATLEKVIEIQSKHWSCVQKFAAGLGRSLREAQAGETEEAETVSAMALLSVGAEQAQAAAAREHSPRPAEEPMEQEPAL
Chain of HDAC4 (P56524 whole entry): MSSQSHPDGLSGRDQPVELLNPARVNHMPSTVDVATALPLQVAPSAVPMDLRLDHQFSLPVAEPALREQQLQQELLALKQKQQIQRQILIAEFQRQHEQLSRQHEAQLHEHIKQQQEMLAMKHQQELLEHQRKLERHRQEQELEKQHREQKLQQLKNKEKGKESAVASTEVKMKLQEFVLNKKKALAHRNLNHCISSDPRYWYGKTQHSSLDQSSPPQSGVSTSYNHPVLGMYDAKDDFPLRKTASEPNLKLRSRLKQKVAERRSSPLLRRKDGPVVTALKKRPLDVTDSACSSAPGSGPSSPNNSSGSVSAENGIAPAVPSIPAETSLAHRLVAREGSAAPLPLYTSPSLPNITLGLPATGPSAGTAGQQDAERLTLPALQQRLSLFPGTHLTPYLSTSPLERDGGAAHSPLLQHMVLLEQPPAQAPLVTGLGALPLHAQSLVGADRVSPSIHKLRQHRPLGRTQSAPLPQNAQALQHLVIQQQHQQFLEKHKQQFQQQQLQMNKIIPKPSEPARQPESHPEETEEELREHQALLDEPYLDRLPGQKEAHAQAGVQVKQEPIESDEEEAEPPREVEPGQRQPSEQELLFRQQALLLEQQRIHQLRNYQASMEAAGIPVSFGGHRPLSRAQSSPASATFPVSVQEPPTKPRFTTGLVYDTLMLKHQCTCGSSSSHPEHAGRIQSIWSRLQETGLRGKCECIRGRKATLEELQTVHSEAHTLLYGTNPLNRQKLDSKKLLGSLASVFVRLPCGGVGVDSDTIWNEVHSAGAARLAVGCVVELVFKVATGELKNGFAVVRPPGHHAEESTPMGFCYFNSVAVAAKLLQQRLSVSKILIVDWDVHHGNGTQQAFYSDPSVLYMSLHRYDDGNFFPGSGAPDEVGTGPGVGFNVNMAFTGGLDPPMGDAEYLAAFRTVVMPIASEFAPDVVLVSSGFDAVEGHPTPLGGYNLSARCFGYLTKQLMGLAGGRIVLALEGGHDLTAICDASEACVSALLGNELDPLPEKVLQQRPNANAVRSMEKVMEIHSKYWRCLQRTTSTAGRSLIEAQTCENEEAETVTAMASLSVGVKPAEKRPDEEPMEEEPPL
Chain of HDAC1 (Q13547 whole entry): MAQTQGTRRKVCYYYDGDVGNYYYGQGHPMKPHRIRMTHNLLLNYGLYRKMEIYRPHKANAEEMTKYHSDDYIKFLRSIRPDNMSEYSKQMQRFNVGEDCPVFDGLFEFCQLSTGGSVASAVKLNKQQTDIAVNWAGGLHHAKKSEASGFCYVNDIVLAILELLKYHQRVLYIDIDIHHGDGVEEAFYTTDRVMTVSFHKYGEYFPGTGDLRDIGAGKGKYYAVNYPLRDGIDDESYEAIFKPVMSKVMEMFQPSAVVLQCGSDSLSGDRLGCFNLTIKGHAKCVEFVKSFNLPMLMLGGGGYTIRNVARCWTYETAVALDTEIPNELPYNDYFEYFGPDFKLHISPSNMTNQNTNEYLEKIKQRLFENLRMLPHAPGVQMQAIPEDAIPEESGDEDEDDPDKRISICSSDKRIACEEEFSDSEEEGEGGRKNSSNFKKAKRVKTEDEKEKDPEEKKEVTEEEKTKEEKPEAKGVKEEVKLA

PAC-320
450 to 1390 nM: HDAC 3 | HDAC4 | HDAC2 | HDAC6 | HDAC1 | HDAC5
